Data published in article PMC8009417, “Selective killing of homologous recombination-deficient cancer cell lines by inhibitors of the RPA:RAD52 protein-protein interaction” (PLoS ONE, 2021).
pEC50: −log10 of the molar value.

Tests used:
[1] = system: GFP-RAD51 foci in PE01 C4-2 cells; test: Radiation-induced GFP-RAD51 foci formation; type: cell-based, human; conditions: 3 nM pre-treatment, 15 Gy X-ray
Experimental: (§1) Cells without mitoxantrone and radiation (labeled C) were controls. The average percent of cells with foci (more than 5 foci per cell) are graphed from three independent experiments. More than 30 cells per experiment were analyzed. Error bars represent standard deviation.
(§2) Each cell line was seeded on a coverslip at 10^5 cells per well in a 24-well plate. After the 24 hour incubation, the cells were pre-incubated with mitoxantrone for 2 hours, then irradiated with X-ray at 15 Gy with the RS-2000 Irradiator. After 2~ 8 hours of the irradiation, the cells were fixed in 10% formaldehyde solution at room temperature for 30 min, followed by 10 min incubation in PBS containing 0.5% Triton X-100. After staining with 1 μg/ml H1399 Hoechst dye solution, each coverslip was mounted on a slide. GFP proteins were detected with a Zeiss 710 Confocal Laser Scanning Microscope, and images were processed using Zeiss ZEN software. A cell contained more than 5 foci was considered as positive.

RAD52 protein level = test: Simple Western of RAD52 protein level after treatment; type: cell-based, human; conditions: 72 h at doses near EC50
Experimental: Fig 6 The effect of mitoxantrone treatment on RAD52 levels and DNA damage. […] Data and ANOVA statistical analyses are described in the material and methods section. Significance statistics are shown with single, double, or triple asterisks representing P<0.05, P<0.005, or P<0.0005, respectively.
For western analysis, each cell line was grown and treated as described above. Protein levels were measured in lysates by size separation with a ProteinSimple PeggySue instrument following the manufacturer’s recommendations. Lysates were prepared using the NanoPro Cell Lysis Kit with Bicine/CHAPS (ProteinSimple CBS403) at 0.75 mg/mL concentration when mixed with master mix (containing SDS, DTT and fluorescent molecular weight markers; ProteinSimple PS-FL01-8) and heated for 5 min at 95°C. Electrophoretic nanocapillary size separation of proteins was performed using default settings. After separation, UV light cross-linked proteins to the capillary wall. Capillaries were then washed and incubated with primary antibodies, washed, and incubated with anti-rabbit secondary antibody conjugated with HRP (ProteinSimple DM-001). Finally, luminol and peroxide were applied to generate chemoluminescence which was imaged by a CCD camera. Primary antibody concentrations were optimized and were diluted as follows: Abcam anti-RAD52 antibody (ab18263, diluted 1:25), R&D Systems Human Phospho-histone H2AX (S139) antibody (AF2288, diluted 1:100), and Cell Signalling Technology Pan-Actin antibody (#4968, diluted 1:2500).
The Simple western data were processed and analyzed with ProteinSimple Compass software. Peak areas were calculated using dropped lines. Each lysate was analyzed for RAD52 and γH2AX levels three times and for Actin two times (see S2 Fig). Replicate peak areas for RAD52 and γH2AX were averaged, divided by the average Actin peak area of that sample, multiplied by 100 and graphed using SigmaPlot 7.0.

[2] = system: homologous recombination (HR) in U2OS-DR cells; test: Cell-based DSB repair assay, HR (DR-GFP reporter, FACS); conditions: 4 nM, 2 h pre-treatment, three days
Experimental: (A) The effect of mitoxantrone (MX) on SSA and HR were studied with cell-based DSB repair assays. U2OS-SA and U2OS-DR cells were pre-treated with mitoxantrone for two hours before transfection of the SceI-expression plasmid. Then cells were grown in the presence of mitoxantrone for three days. DSB repair activities were determined by (B) FACS analysis. […] U2OS-SA cells were pre-treated with indicated concentrations of mitoxantrone for two hours, before I-SceI-expression vector transfection. After 72 hours incubation, the cells were harvested, and lysates were prepared. Lysate from each treatment was analyzed by 12% SDS-PAGE and the expression levels of I-SceI was determined by the western blot using anti-HA antibody. The p70 of RPA was used as a loading control. Ratios of I-SceI to p70 was obtained with ImageJ and are shown at the bottom of the image. C: control experiment without the addition of mitoxantrone. (D, E) Analysis of DSB repair activiies by western blots. […] At least three independent experiments were performed. Error bars represent standard deviations.

[3] = system: BRCA1-deficient HCC1937 breast cancer cells (empty vector, BRCA1-); test: Cell viability assay (PrestoBlue, 72 h), HCC1937 with empty vector; type: cell-based; conditions: Homo sapiens, estimated from the graphs
Experimental: Fig 2 BRCA1-deficient HCC1937 breast cancer cell line survival assay. BRCA1-deficient HCC1937 cells corrected with wild-type BRCA1 gene (BRCA1+; closed triangle), and with an empty vector (BRCA1-; closed circle) were examined. For each experiment (Figs 2–4), cell lines were treated with nine concentrations of (A) quinacrine, (B) mitoxantrone, and (C) doxorubicin in 96-well culture plates at 5x10^3 cell/well density. Each treatment point was made in sextuplicate. Treated cells were incubated for 72 hours at 37°C before assessing cell viability using PrestoBlue. Data were normalized to vehicle control. The experiment was repeated three times. Error bars indicate the standard deviation.
The HCC1937 cell line (a gift from Dr. Simon Powell Memorial Sloan Kettering (MSK), New York) was derived from a mammary gland primary ductal carcinoma at the early onset of a tumor. This TNBC patient carried a germline mutation in BRCA1, resulting in carboxy-terminal truncated protein and loss of the second BRCA1 allele. BRCA1-restored and empty vector cell lines were also obtained by transfection of a vector containing a full-length human BRCA1 cDNA or an empty vector, respectively. The HCC1937 cell lines were cultured as described.
Cells were seeded 5 x 10^3 cells per well in 96-well plates in a 90 μL volume per well one day before treatment. Cells in 96-well plates were incubated with increasing concentrations of the compound or vehicle control (1% DMSO) for 72 hours. Each treatment plate contained nine concentrations of a compound in sextuplicate. Growth inhibition was determined using PrestoBlue reagent (Life Technologies, #A13261). Fluorescent measurements were taken using a Spectramax M5 plate reader (MDS). To assess cells’ replication in the absence of compounds as a control, six wells on each plate were treated with vehicle to be read in triplicate at the initial treatment day (T0) and at 72-hour read (T100).

[4] = system: BRCA2-revertant PE01 C4-2 cells (BRCA2+); test: Cell viability assay (PrestoBlue, 72 h), PE01 C4-2; conditions: Homo sapiens, C4-2, 72 h, read-out: EC50, cell viability
[5] = system: GFP-RAD52 foci in PE01 C4-2 cells; test: Radiation-induced GFP-RAD52 foci formation; type: cell-based, human; conditions: 3 nM pre-treatment, 15 Gy X-ray
Experimental: as §1, §2

O=C1c2c(O)ccc(O)c2C(=O)c2c(NCCNCCO)ccc(NCCNCCO)c21 [Mitoxantrone, mitoxantrone]
Effect on radiation-induced RAD51 foci formation [1]: did not suppress the radiation-induced RAD51 foci formation | Change of RAD52 level with treatment (RAD52 protein level; HCC1937 cells): the level of RAD52 increased | Change of RAD52 level with treatment (RAD52 protein level; PE01 cells): dramatic reduction in RAD52 protein | Change of RAD52 level with treatment (RAD52 protein level; UWB1 cells): the level of RAD52 decreased | HR suppression [2]: 40% ± 7% | pEC50 [3]: 6.10 | pEC50 [4]: 6.40 | Effect on radiation-induced RAD52 foci formation [5]: inhibited the radiation-induced RAD52 foci formation
